Assay [1] addresses SARS-CoV-2 NSP3 macrodomain (Mac1) (Severe acute respiratory syndrome coronavirus 2, UniProt P0DTD1). Nature of the assay: biochemical. In kind it is binding. The settings on record: for Ligand efficiency (binding enery per heavy atom): from SARS CoV-2 macrodomain HTRF assay.
Assay [2] concerns the target SARS-CoV-2 NSP3 macrodomain (Mac1), P43 crystal form (Severe acute respiratory syndrome coronavirus 2, UniProt P0DTD1). In kind it is binding. To be noted: for Number of isomers bound: ligand modeling in Mac1 crystal structure; for Isomers modeled: stereoisomer(s) modeled in Mac1 crystal structure.
Setting [3] is: dose-response, read-out: SARS CoV-2 macrodomain HTRF assay: IC50.
[4] abbreviates: dose-response, read-out: SARS CoV-2 macrodomain HTRF assay: Ki.
[5] abbreviates: preliminary screen, compound at 200 μM, mean of 3-4 technical replicates, read-out: % competition in HTRF assay.

The results in this text go back to doi:10.1101/2024.08.25.609621 (bioRxiv, 2024).

Where two headings read alike, the source gives them in different places.

A word on the IC50: it is the concentration that inhibits the measured activity by half. As usually defined, the Ki is a dissociation constant, usually derived from enzyme kinetics or from competition with a known ligand. For `OC1(CNc2ncnc3[nH]ccc23)CCCOC1` (stereo not shown) [AVI-4311], the IC50 in assay [1] (setting [3]) is 170 µM. Moreover, in assay [1] (setting [4]), the Ki amounted to 160 µM. Also, the “Ligand efficiency (binding enery per heavy atom)” value in assay [1] is 0.29. For the same compound, in assay [2], the “Number of isomers bound” value stood at 1.

Regarding `CC1CCC(O)(CNc2ncnc3[nH]ccc23)CC1` (stereo not shown) [AVI-4312], the half-inhibitory concentration (IC50) in assay [1] (setting [3]) was found to be 21 µM. Moreover, the Ki in assay [1] (setting [4]) turned out to be 20 µM. In assay [1], the “Ligand efficiency (binding enery per heavy atom)” value was 0.34. In assay [2], the “Number of isomers bound” value was found to be 1 and the Isomers modeled result is given as “rr”.

Regarding `OC1(CNc2ncnc3[nH]ccc23)COC2CC1C2` (stereo not shown) [AVI-4313], in assay [1] (setting [3]), the IC50 was found to be 130 µM. Moreover, the Ki in assay [1] (setting [4]) came to 120 µM. Moreover, in assay [1], the “Ligand efficiency (binding enery per heavy atom)” value is listed as 0.29. Besides, the “Number of isomers bound” value in assay [2] came to 1.

On to `OC1(CNc2ncnc3[nH]ccc23)CCOCC1` [AVI-4314], for which the IC50 in assay [1] (setting [3]) is 230 µM. For the same compound, the Ki in assay [1] (setting [4]) came out at 210 µM. Also, in assay [1], the “Ligand efficiency (binding enery per heavy atom)” value was 0.28. In assay [2], the “Number of isomers bound” value is listed as 1 and the Isomers modeled entry is “achiral”.

For `O=S1(=O)CCCC(O)(CNc2ncnc3[nH]ccc23)C1` (stereo not shown) [AVI-4317], in assay [1] (HTRF IC50), the “fold less potent compared to the AVI-3761 parent” value is reported as ~ 4 fold. Also, in assay [1] (setting [4]), the Ki is 100 µM. Also, in assay [1], the “Ligand efficiency (binding enery per heavy atom)” value stood at 0.28. Besides, the IC50 in assay [1] (read-out: HTRF IC50) amounted to 110 µM. For the same compound, in assay [2], the “Number of isomers bound” value was found to be 1.

With `CN(CC1(O)CCOCC1)c1ncnc2[nH]ccc12` [AVI-4318], the IC50 in assay [1] (setting [3]) worked out at 71 µM. For the same compound, the Ki in assay [1] (setting [4]) was found to be 66 µM. Further, in assay [1], the “Ligand efficiency (binding enery per heavy atom)” value came to 0.30. Besides, in assay [2], the “Number of isomers bound” value was 1 and the Isomers modeled result was “achiral”.

For the compound `OC1(CNc2ncnc3[nH]ccc23)CCSCC1` [AVI-4319], the IC50 in assay [1] (setting [3]) came out at 170 µM. Besides, the inhibition constant Ki in assay [1] (setting [4]) came out at 160 µM. In addition, in assay [1], the “Ligand efficiency (binding enery per heavy atom)” value is 0.29. For the same compound, in assay [2], the “Number of isomers bound” value turned out to be 1 and the Isomers modeled entry is given as “achiral”.

With `OC1(CNc2ncnc3[nH]ccc23)CC2CCC1CC2` (stereo not shown) [AVI-4320], the IC50 in assay [1] (setting [3]) stood at 83 µM. Also, the Ki in assay [1] (setting [4]) is 77 µM. For the same compound, in assay [1], the “Ligand efficiency (binding enery per heavy atom)” value amounted to 0.28. For the same compound, the “Number of isomers bound” value in assay [2] was 1.

Regarding `OC1(CNc2ncnc3[nH]ccc23)CCCSC1` (stereo not shown) [AVI-4322], in assay [1] (setting [3]), the IC50 worked out at 53 µM. In assay [1] (setting [4]), the Ki is 49 µM. For the same compound, the “Ligand efficiency (binding enery per heavy atom)” value in assay [1] is 0.33. For the same compound, in assay [2], the “Number of isomers bound” value turned out to be 1.

Take `Cc1c[nH]c2ncnc(NCC3(O)CCC(C)CC3)c12` (stereo not shown) [AVI-4331]: the IC50 in assay [1] (setting [3]) amounted to 210 µM. The “Ligand efficiency (binding enery per heavy atom)” value in assay [1] was determined as 0.26. Also, in assay [2], the “Number of isomers bound” value is recorded as 1 and the Isomers modeled entry is “rr”.

As to `CC(O)C(C)Nc1ncnc2[nH]ccc12` (stereo not shown) [AVI-5158], the inhibition at 200 µM in assay [1] (Single dose, concentration 200 μM, read-out: Average % competition) turned out to be 32%. Further, the inhibition at 200 µM in assay [1] (setting [5]) is 32%. For the same compound, in assay [2], the “Number of isomers bound” value is 2 and the Isomers modeled result is recorded as “RS,RR”.

For `CC(C)C1CCCN1c1ncnc2[nH]ccc12` (stereo not shown) [AVI-5216], the inhibition at 200 µM in assay [1] (Single dose, concentration 200 μM, read-out: SARS CoV-2 macrodomain HTRF assay: Average % competition) amounted to 35%; in assay [1] (setting [5]), 35%. For the same compound, in assay [2], the “Number of isomers bound” value came out at 1.

For the compound `CC(C)(CO)Nc1ncnc2[nH]ccc12` [AVI-5266], the IC50 in assay [1] (SARS CoV-2 macrodomain HTRF assay, dose-response, read-out: IC50) stood at 32 µM. In addition, the inhibitory constant (Ki) in assay [1] (SARS CoV-2 macrodomain HTRF assay, dose-response, read-out: Ki) worked out at 30 µM. In addition, the IC50 in assay [1] (read-out: HTRF IC50) is 110 µM. In addition, in assay [2], the “Number of isomers bound” value is given as 1 and the Isomers modeled result is given as “achiral”.

As for `CC1(C)CCN(c2ncnc3[nH]ccc23)C(CO)C1` (stereo not shown) [AVI-5994], in assay [1] (setting [3]), the IC50 stood at 68 µM. In addition, the Ki in assay [1] (setting [4]) amounted to 63 µM. For the same compound, in assay [1], the “Ligand efficiency (binding enery per heavy atom)” value turned out to be 0.31. Besides, in assay [2], the “Number of isomers bound” value is 1 and the Isomers modeled result was “S,S”.

For the compound `O[C@H]1CC[C@H]2CCN(c3ncnc4[nH]ccc34)[C@H]21` [AVI-5997], the IC50 in assay [1] (setting [3]) turned out to be 37 µM. Besides, the Ki in assay [1] (setting [4]) is 34 µM. Also, the “Ligand efficiency (binding enery per heavy atom)” value in assay [1] is given as 0.34. Also, in assay [2], the “Number of isomers bound” value was 1 and the Isomers modeled result is “SSR”.

As for `OCC1C=CCCN1c1ncnc2[nH]ccc12` (stereo not shown) [AVI-5998], the IC50 in assay [1] (setting [3]) came out at 160 µM. The Ki in assay [1] (setting [4]) stood at 150 µM. The “Ligand efficiency (binding enery per heavy atom)” value in assay [1] was determined as 0.31. Besides, the “Number of isomers bound” value in assay [2] is listed as 1.

As for `OCC1CC=CCN1c1ncnc2[nH]ccc12` (stereo not shown) [AVI-6002], the IC50 in assay [1] (setting [3]) was 52 µM. Further, in assay [1] (setting [4]), the Ki came to 48 µM. The “Ligand efficiency (binding enery per heavy atom)” value in assay [1] was determined as 0.35. Further, the “Number of isomers bound” value in assay [2] was determined as 1.

In the case of `OC1(CNc2ncnc3[nH]ccc23)CCCCC1` [AVI-6217], in assay [1] (setting [3]), the half-inhibitory concentration (IC50) stood at 42 µM. Also, in assay [1] (setting [4]), the inhibitory constant (Ki) was found to be 39 µM. For the same compound, in assay [1], the “Ligand efficiency (binding enery per heavy atom)” value worked out at 0.34. Also, in assay [2], the “Number of isomers bound” value was determined as 1 and the Isomers modeled result is reported as “achiral”.

`OC1CCC(O)(CNc2ncnc3[nH]ccc23)CC1` (stereo not shown) [AVI-6220]: the IC50 in assay [1] (setting [3]) turned out to be 260 µM. Besides, the Ki in assay [1] (setting [4]) is 240 µM. The “Ligand efficiency (binding enery per heavy atom)” value in assay [1] came to 0.26. In assay [2], the “Number of isomers bound” value is 1 and the Isomers modeled entry was “rr,rr”.
